“And” between values parts separate entries of the source, which are not always exact repeats. Equal entries are not always repeated.
How the values were obtained:
[1] = prebiotic effect of black tea flavonoid components (test not described); conditions: statement in the description, no test given
bifidobacteria [2] = conditions: background statement; cited from earlier work
[3] = system: Eubacterium rectale and Clostridium coccoides; assay: 3 stage in vitro gut model, bacterial populations; type: cell-based
Bacteroides = assay: 3 stage in vitro gut model, bacterial populations; type: cell-based
Bifidobacteria [4] = assay: 3 stage in vitro gut model, bacterial populations; type: cell-based
[5] = system: Clostridia (C. histolyticum and C. perfringens); type: cell-based
[6] = SS1 (steady state without test substrate), vessel 1
[7] = SS1 (steady state without test substrate), vessel 2
[8] = SS1 (steady state without test substrate), vessel 3
[9] = SS2 (steady state with substrate added daily), vessel 1
[10] = SS2 (steady state with substrate added daily), vessel 2
[11] = SS2 (steady state with substrate added daily), vessel 3

## catechins
[1]
  prebiotic effect (in words): appear to reduce the prebiotic effect of thearubigins

## theaflavins
[1]
  prebiotic effect (in words): little or no prebiotic effect

## fructo-oligosaccharides
Bifidobacteria [2]
  bifidobacteria in humans: significantly increase bifidobacteria

## Inulin
[3]; [6]
  Eubacterium rectale and Clostridium coccoides population: 9.14 Log 10 cells/ml of culture fluid
[3]; [7]
  Eubacterium rectale and Clostridium coccoides population: 9.19 Log 10 cells/ml of culture fluid
[3]; [8]
  Eubacterium rectale and Clostridium coccoides population: 9.17 Log 10 cells/ml of culture fluid
[3]; [9]
  Eubacterium rectale and Clostridium coccoides population: 9.37 Log 10 cells/ml of culture fluid
[3]; [10]
  Eubacterium rectale and Clostridium coccoides population: 9.28 Log 10 cells/ml of culture fluid
[3]; [11]
  Eubacterium rectale and Clostridium coccoides population: 9.20 Log 10 cells/ml of culture fluid
Bifidobacteria [2]
  bifidobacteria in humans: significantly increase bifidobacteria
Bacteroides; [6]
  Bacteroides population: 7.23 Log 10 cells/ml of culture fluid
Bacteroides; [7]
  Bacteroides population: 8.53 Log 10 cells/ml of culture fluid
Bacteroides; [8]
  Bacteroides population: 8.35 Log 10 cells/ml of culture fluid
Bacteroides; [9]
  Bacteroides population: 6.36 Log 10 cells/ml of culture fluid
Bacteroides; [10]
  Bacteroides population: 8.81 Log 10 cells/ml of culture fluid
Bacteroides; [11]
  Bacteroides population: 8.55 Log 10 cells/ml of culture fluid
Bifidobacteria [4]; [6]
  Bifidobacteria population: 7.62 Log 10 cells/ml of culture fluid
Bifidobacteria [4]; [7]
  Bifidobacteria population: 7.52 Log 10 cells/ml of culture fluid
Bifidobacteria [4]; [8]
  Bifidobacteria population: 7.49 Log 10 cells/ml of culture fluid
Bifidobacteria [4]; SS1 vs SS2, 1.33 g digested black tea solids per day (2.40 g before digestion), 5 g/day inulin
  prebiotic effect in gut model (in words): achieved a similar effect
Bifidobacteria [4]; [9]
  Bifidobacteria population: 8.45 Log 10 cells/ml of culture fluid
Bifidobacteria [4]; [10]
  Bifidobacteria population: 8.26 Log 10 cells/ml of culture fluid
Bifidobacteria [4]; [11]
  Bifidobacteria population: 8.15 Log 10 cells/ml of culture fluid
[5]
  Clostridia (C. histolyticum and C. perfringens) population: 5.67 Log 10 cells/ml of culture fluid and 5.84 Log 10 cells/ml of culture fluid and 5.49 Log 10 cells/ml of culture fluid and 5.89 Log 10 cells/ml of culture fluid and 5.59 Log 10 cells/ml of culture fluid

From patent US8246943B2, “Prebiotic composition” (Conopco, Inc., priority 2009, dated 2012)
